Patent publication US10689378B2, “Triazolopyridine compounds and uses thereof” (Novartis AG, priority 2016, dated 2020)
Read-outs that look alike come from different tables or passages of the source.

Key:
[1] = molecular target: T1, EED (1-441)-His protein (Homo sapiens, UniProt O75530); experiment: EED-H3K27Me3 peptide competition binding assay by AlphaScreen
T1 construct: 30 nM EED (1-441)-His protein
Experimental: EED-H3K27Me3 Peptide Competition Binding Assay by AlphaScreen (α-Screen)
To assess the compounds' potency in the EED-H3K27Me3 competition binding assay, compounds were serially diluted 3-fold in DMSO to obtain a total of twelve concentrations. Then compounds at each concentration (75 nL of each) were transferred by Mosquito into a 384-well Perkin Elmer ProxiPlate 384 plus plates. 8 uL of solutions containing 30 nM EED (1-441)-His protein and 15 nM biotin-H3K27Me3 (19-33) peptide in the buffer (25 mM HEPES, pH 8, 0.02% Tween-20, 0.5% BSA) were added to the wells and then incubated with compound for 20 min. AlphaScreen detection beads mix was prepared immediately before use by mixing nickel chelate acceptor beads and streptavidin donor beads in a 1:1 ratio (Perkin Elmer, Product No. 6760619C/M/R) into the buffer described above. Then 4 μL of detection beads mix was added to the plate and incubate in the dark at the rt for 1 h. The final concentration of donor and acceptor beads was 10 μg/mL for each. Plates were read on EnVision (PerkinElmer) using the AlphaScreen setting adapted for optimal signal detection with a 615 nm filter, after sample excitation at 680 nm. The emission signal at 615 nm was used to quantify compounds inhibition. AlphaScreen signals were normalized based on the reading coming from the positive (maximum signal control) and negative controls (minimum signal control) to give percentage of activities left. The data were then fit to a dose response equation using the program Helios (Novartis) to get the IC50 values. Helios is a Novartis in-house assay data analysis software using the methods described by Normolle, D. P., Statistics in Medicine, 12:2025-2042 (1993); Formenko, I. et al, Computer Methods and Programs in Biomedicine, 82, 31-37 (2006); Sebaugh, J. L., Pharmaceutical Statistics, 10:128-134 (2011); Kelly, C. et al., Biometrics, 46(4):1071-1085 (1990); and Kahm, M. et al., Journal of Statistical Software, 33 (7): (2010) (grofit: Fitting Biological Growth Curves with R, pages 1-21, available at http://www.jstatsoft.org/).

[2] = system: H3K27 methylation in G401 cell; experiment: ELISA (H3K27 methylation) assay in G401 cells; assay type: cell-based, human; settings: Homo sapiens, G-401, read-out: (c) IC50, ELISA Qualified
Experimental: Compounds of the present invention were assessed for their ability to inhibit PRC2 activity in a pentameric complex of EZH2, SUZ12, EED, Rbap48 and AEBP in biochemical assays. The ability of compounds of the present invention to inhibit cellular activity of PRC2 was assessed by analysing histone H3 lysine 27 methylation in human cell lines. The ability of compounds of the present invention to inhibit cancers was derived from their ability to modulate activity in human cancer cell lines bearing specific dependence to PRC2 activity to maintain cancerous growth.
ELISA (H3K27 Methylation) Assay
Representative compounds of the present invention were serially and separately diluted 3-fold in DMSO to obtain a total of eight or twelve concentrations. Then the compounds were added to G401 cell cultured in 384-well plate at 1:500 dilution to obtain the highest concentration of 20 μM. The cells were further cultured for 48 h before ELISA procedure.
Histone extraction: Cells, in 384-well plate, were washed with PBS (10×PBS buffer (80 g NaCl (Sigma, S3014), 2 g KCl (Sigma, 60128), 14.4 g Na2HPO4 (Sigma, S5136), 2.4 g KH2PO4 (Sigma, P9791) to 1 L water, pH to 7.4) and lysed with the addition of lysis buffer (0.4N HCl; 45 μL per well). The plate was gently agitated at 4° C. for 30 min. The cell lysate was neutralized with neutralization buffer (0.5 M sodium phosphate dibasic, pH 12.5, 1 mM DTT; 36 μL per well). The plate was agitated to ensure the lysates were well mixed prior to the ELISA protocol.
ELISA protocol: Cell lysates were transferred to the wells of a 384-well plate and the final volume was adjusted to 50 μL per well with PBS. The plate was sealed, centrifuged at 2,000 rpm for 2 min and incubated at 4° C. for about 16 h. The plate was washed with TBST buffer (1×TBS (10×TBS: 24.2 g Tris (Sigma, T6066), 80 g NaCl (Sigma, S3014) to 1 L of water and adjust pH to 7.6 with HCl) with 0.1% Tween-20). Blocking buffer (TBST, 5% BSA; 50 μL per well) was added and the plate was incubated for 1 h at rt. The blocking buffer was removed and primary antibody was added (30 μL per well). The following dilutions were performed with blocking buffer: for anti-H3K27me3 antibody (Cell Signaling Technology, #9733), dilution was 1:1000; for anti-H3K27me2 antibody (Cell Signaling Technology, #9288), dilution was 1:100; for anti-H3 antibody (Abcam, Cat #24834), dilution was 1:1000. The primary antibody was incubated in the plate at rt for 1 h. The wells were washed with TBST and incubated with secondary antibody for 1 h at rt. For secondary antibodies, the following dilutions were carried out with blocking buffer: anti-rabbit antibody (Jackson ImmunoResearch, #111-035-003), dilution was 1:2000; and anti-mouse antibody (Cell signaling technology, #7076), dilution was 1:1000. After 1 h of incubation at rt, the wells were washed with TBST. ECL substrate (Pierce, #34080) was added at 30 μL per well and the plates were centrifuged at 2,000 rpm for 2 min. The signal was read using a PerkinElmer Envision Reader. The H3K27 methylation readouts were normalized using H3 signal and then percentage inhibition was calculated against the samples treated with DMSO. The data were then fit to a dose response curve using the program Helios to get the IC50 values of the test compound.

[3] = read-out: (a) IC50, EED Alphascreen binding Qualified

T1 sequence (O75530 whole entry): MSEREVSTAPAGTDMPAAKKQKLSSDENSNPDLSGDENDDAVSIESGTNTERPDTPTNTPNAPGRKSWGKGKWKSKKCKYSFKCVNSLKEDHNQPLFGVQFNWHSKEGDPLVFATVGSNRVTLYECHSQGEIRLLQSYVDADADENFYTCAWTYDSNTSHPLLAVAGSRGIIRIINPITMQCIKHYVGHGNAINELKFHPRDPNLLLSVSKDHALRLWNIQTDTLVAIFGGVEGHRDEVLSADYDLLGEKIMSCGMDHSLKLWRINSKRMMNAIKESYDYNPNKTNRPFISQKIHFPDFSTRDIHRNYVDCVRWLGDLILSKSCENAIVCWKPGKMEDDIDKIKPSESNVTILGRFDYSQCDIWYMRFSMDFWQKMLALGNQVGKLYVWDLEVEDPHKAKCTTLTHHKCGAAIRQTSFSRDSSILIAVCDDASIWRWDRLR

Structure (SMILES) | IC50 [1, 3] [µM] | IC50 [2] [µM] | IC50 ([1]; EED-H3K27Me3 peptide competition, AlphaScreen, read-out: (a) IC50 EED Alphascreen binding Qualified) [µM]
COc1cccc(CNc2ccc(-c3ccc(CN(C)C)cc3)c3nncn23)c1 [Example 14, 8-(4-((dimethylamino)methyl)phenyl)-N-(3-methoxybenzyl)-[1,2,4] triazolo[4,3-a]pyridin-5-amine] | 0.325 | 0.28 | 
CN(C)Cc1ccc(-c2ccc(NCc3ccccc3)n3cnnc23)cc1 [Example 17, N-benzyl-8-(4-((dimethylamino)methyl)phenyl)-[1,2,4]triazolo[4,3-a] pyridin-5-amine] | 0.234 | 0.249 | 
COc1ccccc1CNc1ccc(-c2ccccc2)c2nncn12 [Example 23, N-(2-methoxybenzyl)-8-phenyl-[1,2,4]triazolo[4,3-a] pyridin-5-amine] | 0.18 | 0.521 | 
Cc1ccccc1CNc1ccc(-c2ccc(CN(C)C)cc2)c2nncn12 [Example 31, 8-(4-((dimethylamino)methyl)phenyl)-N-(2-methylbenzyl)-[1,2,4]triazolo[4,3-a]pyridin-5-amine] | 0.394 | 0.508 | 
CN(C)Cc1ccc(-c2ccc(NCc3cccc(F)c3)n3cnnc23)cc1 [Example 35, 8-(4-((dimethylamino)methyl)phenyl)-N-(3-fluorobenzyl)-[1,2,4] triazolo [4,3-a]pyridin-5-amine] | 2.57 | 3.49 | 
CN(C)Cc1ccc(-c2ccc(NCc3ccccc3F)n3cnnc23)cc1 [Example 36, 8-(4-((dimethylamino)methyl)phenyl)-N-(2-fluorobenzyl)-[1,2,4] triazolo [4,3-a]pyridin-5-amine] | 1.01 | 0.937 | 
CN(C)Cc1ccc(-c2ccc(NCc3ccc(F)cc3)n3cnnc23)cc1 [Example 37, 8-(4-((dimethylamino)methyl)phenyl)-N-(4-fluorobenzyl)-[1,2,4]triazolo[4,3-a] pyridin-5-amine] | 1.52 | 1.8 | 
COc1ccccc1CNc1ccc(-c2ccccc2C)c2nncn12 [Example 46, N-(2-methoxybenzyl)-8-(o-tolyl)-[1,2,4]triazolo[4,3-a] pyridin-5-amine] | 0.16 | 0.529 | 
CN(C)Cc1ccc(-c2ccc(NCc3cccnc3)n3cnnc23)cc1 [Example 48, 8-(4-((dimethylamino)methyl)phenyl)-N-(pyridin-3-ylmethyl)-[1,2,4]triazolo[4,3-a]pyridin-5-amine] | 4.23 | 2.28 | 
COc1ccc(F)c(CNc2ccc(-c3ccc(CN(C)C)cc3)c3nncn23)c1 [Example 49, 8-(4-((dimethylamino)methyl)phenyl)-N-(2-fluoro-5-methoxybenzyl)-[1,2,4] triazolo[4,3-a]pyridin-5-amine] | 0.164 | 0.14 | 
COc1cncc(-c2ccc(NCc3ccccc3OC)n3cnnc23)c1 [Example 51, N-(2-methoxybenzyl)-8-(5-methoxypyridin-3-yl)-[1,2,4] triazolo[4,3-a]pyridin-5-amine] | 0.127 | 0.159 | 
COc1ccccc1CNc1ccc(-c2ccc(CN3CCCC3=O)cc2)c2nncn12 [Example 55, 1-(4-(5-((2-methoxybenzyl)amino)-[1,2,4]triazolo[4,3-a]pyridin-8-yl)benzyl) pyrrolidin-2-one] | 0.0151 | 0.0441 | 
COc1ccccc1CNc1ccc(-c2cncnc2)c2nncn12 [Example 58, N-(2-methoxybenzyl)-8-(pyrimidin-5-yl)-[1,2,4] triazolo[4,3-a]pyridin-5-amine] | 0.0598 | 0.0663 | 
COc1cc(-c2ccc(NCc3ccccc3OC)n3cnnc23)ccn1 [Example 59, N-(2-methoxybenzyl)-8-(2-methoxypyridin-4-yl)-[1,2,4] triazolo[4,3-a]pyridin-5-amine] | 0.0316 | 0.168 | 
COc1ccccc1CNc1ccc(-c2ccc(CN3CCCC3)cc2)c2nncn12 [Example 60, N-(2-methoxybenzyl)-8-(4-(pyrrolidin-1-ylmethyl)phenyl)-[1,2,4]triazolo[4,3-a] pyridin-5-amine] | 0.0402 | 0.0565 | 
COc1ccccc1CNc1ccc(-c2ccc(N3CCOCC3)c(Cl)c2)c2nncn12 [Example 65, 8-(3-chloro-4-morpholinophenyl)-N-(2-methoxybenzyl)-[1,2,4] triazolo[4,3-a]pyridin-5-amine] | 1.66 | 11 | 
COc1ccccc1CNc1ccc(-c2ccc(-c3nn[nH]n3)cc2)c2nncn12 [Example 74, 8-(4-(2H-tetrazol-5-yl)phenyl)-N-(2-methoxybenzyl)-[1,2,4]triazolo[4,3-a] pyridin-5-amine] | 0.32 | 4.24 | 
COc1ccccc1CNc1ccc(-c2cnc(N3CCN(C)CC3)c(Cl)c2)c2nncn12 [Example 75, 8-(5-chloro-6-(4-methylpiperazin-1-yl)pyridin-3-yl)-N-(2-methoxybenzyl)-[1,2,4] triazolo[4,3-a]pyridin-5-amine] | 0.132 | 0.488 | 
COc1cccc(F)c1CNc1ccc(-c2ccc(S(=O)(=O)N(C)C)cc2)c2nncn12 [Example 79, 4-(5-((2-fluoro-6-methoxybenzyl)amino)-[1,2,4]triazolo[4,3-a]pyridin-8-yl)-N,N-dimethylbenzene sulfonamide] | 0.116 | 0.0785 | 
COc1ccccc1CNc1ccc(-c2ccc(NC(C)=O)cc2)c2nncn12 [Example 80, N-(4-(5-((2-methoxybenzyl)amino)-[1,2,4]triazolo[4,3-a]pyridin-8-yl)phenyl) acetamide] | 0.225 | 0.779 | 
COc1ccc(F)cc1CNc1ccc(-c2ccc(CN(C)C)cc2)c2nncn12 [Example 81, 8-(4-((dimethylamino)methyl)phenyl)-N-(5-fluoro-2-methoxybenzyl)-[1,2,4]triazolo[4,3-a]pyridin-5-amine] | 0.387 | 0.928 | 
COc1cc(F)cc(F)c1CNc1ccc(-c2cnc(OC3CC3)nc2C)c2nncn12 [Example 344, 8-(2-cyclopropoxy-4-methylpyrimidin-5-yl)-N-(2,4-difluoro-6-methoxybenzyl)-[1,2,4]triazolo[4,3-a]pyridin-5-amine] |  |  | 0.0255
